According to patent US20140335050A1, “METHODS, COMPOSITIONS, AND KITS FOR THE TREATMENT OF CANCER” (The General Hospital Corporation, priority 2011, published 2014):

What was measured:
Format in all cases: cell-based, human
A375 melanoma cell line = experiment: Antibody staining and flow cytometry (intracellular Melan-A/MART-1, gp100, TRP-2; surface MHC Class I)
Protocol: (§1) Cells were fixed with 1% formaldehyde, permeabilized with 0.1% saponin, stained with monoclonal antibodies to melanocyte antigens. Antibodies were obtained with specificity for: MART-1 from Vector Labs (Burlingame, Calif.); gp100 HMB45 from DakoCytomation (Carpinteria, Calif.) and then visualized with goat anti-mouse FITC-conjugated secondary antibody from Invitrogen (Fredrick, Md.). The level of EGFP was determined by flow cytometry of unfixed cells that were washed and resuspended in 1×PBS.
(§2) Cells were plated at a density of 1×10^5 in 1 ml of medium in a 24-well plate and cultured for varying times as indicated in results. […] After incubation, cells were collected by trypsinization and then evaluated by flow cytometry.
(§3) Intracellular staining and flow cytometric analyses of cytoplasmic Melan-A/MART-1, and gp100 expression were performed as described previously. Cells were fixed with 1% formaldehyde, permeabilized with 0.1% saponin, stained with monoclonal antibodies to melanocyte antigens. Antibodies were obtained with specificity for: Melan-A/MART-1 from Vector Labs (Burlingame, Calif.); gp100/HMB45 from DakoCytomation (Carpinteria, Calif.) and then visualized with goat anti-mouse FITC-conjugated secondary antibody from Invitrogen (Frederick, Md.). The level of EGFP was determined by flow cytometry of unfixed cells washed and resuspended in 1×PBS. Surface staining of MHC Class I was carried out using the antibody W6/32 on cells harvested with Cell Stripper from MediaTech Inc. (Manassas, Va.) and carried out on ice.
(§4) Cell were seeded at 1×10^6 cells in a T25 flask with 10 ml of media for the 4 day IFN-beta pre-treatments. Cells were then harvested and plated in 24 well plate at 1×10^5 cells per well in 1 ml of media for 3 day treatments.
(§5) For surface staining of HLA Class I and II antigens, cells were harvested using CellStripper™ from Mediatech (Manassas, Va.). All staining steps were performed on ice. Following a first incubation with antibody to Class I (W6/32) or Class II (L243) for 30 minutes. Stained cells were washed twice with cold PBS and then stained with a goat anti-mouse FITC secondary antibody to allow for quantitative analysis by flow cytometry. For evaluation of cytoplasmic antigens, including Melan-A/MART-1 and gp100, cells were first fixed in paraformaldehyde and permeabilized with saponin as previously described. Staining for cytoplasmic antigens was carried out at room temperature (22° C.).

MUX melanoma cell line = experiment: as above; details: MUX
Protocol: as §1, §2, §3, §4, §5

[1] = tested on: MALME-3M melanoma cell line; experiment: as above
Protocol: as §1, §2, §3

MU89 melanoma cell line = experiment: Antibody staining and flow cytometry (intracellular Melan-A/MART-1, gp100, TRP-2; surface MHC Class I/II); details: MU89
Protocol: as §1, §2, §3, §4, §5

[2] = tested on: U-118 MG glioma cell line; experiment: Antibody staining and flow cytometry (intracellular gp100; surface MHC Class I/II); details: U-118 MG; 3 days; IFN-beta 5000 Units/ml, 17-AEP 1.0, PU-H71 0.3, CCT018159 10.0 μg/ml
Protocol: as §1, §2, §3, §4, §5

[3] = tested on: MU89 MART::EGFP cell line; experiment: Melan-A/MART-1 promoter-driven EGFP reporter, kinetics by flow cytometry; details: MU89 MART::EGFP (FIG. 11)
Protocol: FIG. 11 is a set of four graphs showing the kinetics of Melan-A/MART-1 increase. […] The same number of cells per well were plated in each well of a 24 well plate and drug was added on day zero. Each day cells were collected and assayed for that time point. Control untreated cells are shown for comparison. The data are from one representative experiment.
A kinetic analysis was performed to determine the effect of Hsp90 inhibition on Melan-A/MART-1 promoter activity over time. […] Reporter activity increases steadily for the first 72 hours of Hsp90 inhibition, and then plateaus. The need for continued presence of Hsp90 inhibitors in order for them to be effective (i.e. whether the drug can be removed after short exposure, or whether it must it be continually present) was assessed. […] To achieve full signal enhancement, it is desirable to retain the drug for at least 48 hours, after which the effect remains constant or slightly decreases.
The generation and application of EGFP reporter cells has been previously described. Briefly, a 1200 base pair human genomic DNA segment encompassing the Melan-A/MART-1 promoter was used to generate a construct driving expression of the EGFP reporter gene. Stable transfectants with this construct were generated in the low-antigen cell line A375 and the high-antigen line MM96L+ and MU89. The EGFP expression response patterns of these cells to IFN-beta and MAP kinase inhibitors recapitulates the antigen up-regulation of endogenous Melan-A/MART-1 induced by these agents.
as §3

U-87 MG glioma cell line = experiment: Antibody staining and flow cytometry (intracellular gp100; surface MHC Class I); details: U-87 MG; 3 days; IFN-beta 5000 Units/ml, 17-AEP 0.5, PU-H71 0.3, CCT018159 5.0 μg/ml
Protocol: as §1, §2, §3

[4] = 3 days, IFN-beta 5000 Units/ml, 17-AEP 0.5, PU-H71 0.15, CCT018159 2.5 μg/ml
[5] = 3 days, IFN-beta 5000 Units/ml, 17-AEP 1.0, PU-H71 0.3, CCT018159 10.0 μg/ml
[6] = 4 day IFN-β pre-treatment (5000 Units/ml), then 3 days with fresh IFN-β and the labelled HSP90 inhibitor (label IFN-β: no inhibitor), 17-AEP 1, PU-H71 0.3, CCT018159 10 mg/ml
[7] = 4 day IFN-β pre-treatment (5000 Units/ml), then 3 days without IFN-β with the labelled HSP90 inhibitor (label IFN-β: no inhibitor), 17-AEP 1, PU-H71 0.3, CCT018159 10 mg/ml
[8] = MALME-3M, 3 days, IFN-beta 5000 Units/ml, 17-AEP 1.0, PU-H71 0.3, CCT018159 10.0 μg/ml

In the case of `CO[C@H]1/C=C\C=C(/C)C(=O)NC2=CC(=O)C(NCCN3CCCC3)=C(C[C@@H](C)C[C@H](OC)[C@H](O)[C@@H](C)/C=C(\C)[C@@H]1OC(N)=O)C2=O` [17-AEP], the “Class I, geometric mean of surface staining (W6/32)” value (A375 melanoma cell line; [4]) is reported as 67, the “MART-1, geometric mean of intracellular staining” value (“MART-1, geometric mean” for short) (A375 melanoma cell line; [4]) is reported as 11 and the “TRP-2, geometric mean of intracellular staining” value (“TRP-2, geometric mean” below) (A375 melanoma cell line; [4]) is reported as 31. For the same compound, the “gp100, geometric mean of intracellular staining” value (from here on “gp100, geometric mean”) (A375 melanoma cell line; [4]) was 22, the “MHC Class I, geometric mean of surface staining (W6/32)” value (“MHC Class I, geometric mean” for short) (A375 melanoma cell line; 4 day IFN-β pre-treatment (5000 Units/ml), then 3 days with fresh IFN-β and the labelled HSP90 inhibitor (label IFN-β: no inhibitor), 17-AEP 0.5, PU-H71 0.15, CCT018159 2.5) was 144 and the “MHC Class I, geometric mean” value (A375 melanoma cell line; 4 day IFN-β pre-treatment (5000 Units/ml), then 3 days without IFN-β with the labelled HSP90 inhibitor (label IFN-β: no inhibitor), 17-AEP 0.5, PU-H71 0.15, CCT018159 2.5) was 90. The “MHC Class I, geometric mean” value (A375 melanoma cell line; single agent for 3 days, no IFN-β pre-treatment, IFN-β 5000 Units/ml, 17-AEP 0.5, PU-H71 […], CCT018159 2.5) was 109, the “MHC Class I, geometric mean” value (A375 melanoma cell line; three days, IFN-β 5000 Units/ml, 17-AEP 0.5, PU-H71 […], CCT018159 2.5) was 67 and the “Class I, geometric mean of surface staining (W6/32)” value (MUX melanoma cell line; [5]) was 219. For the same compound, the “MART-1, geometric mean” value (MUX melanoma cell line; [5]) was 19, the “TRP-2, geometric mean” value (MUX melanoma cell line; [5]) was 48 and the “gp100, geometric mean” value (MUX melanoma cell line; [5]) was 34. The “MHC Class I, geometric mean” value (MUX melanoma cell line; [6]) was 615, the “MHC Class I, geometric mean” value (MUX melanoma cell line; [7]) was 496 and the “MHC Class I, geometric mean” value (MUX melanoma cell line; single agent for 3 days, no IFN-β pre-treatment, IFN-β 5000 Units/ml, 17-AEP 1 μg/ml, PU-H71 0.3 μg/ml, CCT018159 10 μg/ml) was 286. For the same compound, the “Class I, geometric mean of surface staining (W6/32)” value [1, 8] was 105, the “MART-1, geometric mean” value [1, 8] was 205 and the “TRP-2, geometric mean” value [1, 8] was 256. The “gp100, geometric mean” value [1, 8] was 839, the “MHC Class I, geometric mean” value ([1]; MALME, three days, IFN-β 5000 Units/ml) was 105 and the “Class I, geometric mean of surface staining (W6/32)” value (MU89 melanoma cell line; [5]) was 54. The “MART-1, geometric mean” value (MU89 melanoma cell line; [5]) was 130, the “TRP-2, geometric mean” value (MU89 melanoma cell line; [5]) was 144 and the “gp100, geometric mean” value (MU89 melanoma cell line; [5]) was 342. The “MHC Class I, geometric mean” value (MU89 melanoma cell line; [6]) was 227, the “MHC Class I, geometric mean” value (MU89 melanoma cell line; [7]) was 86 and the “MHC Class I, geometric mean” value (MU89 melanoma cell line; single agent for 3 days, no IFN-β pre-treatment, IFN-β 5000 Units/ml) was 84. The “MHC Class I, geometric mean” value (MU89 melanoma cell line; three days, IFN-β 5000 Units/ml) was 54, the “Class I, geometric mean of surface staining (W6/32)” value [2] was 117 and the “gp100, geometric mean” value [2] was 61. The “Time at which the fluorescent reporter signal is significantly enhanced (as early as)” value [3] was 2 days, the “Class I, geometric mean of surface staining (W6/32)” value (U-87 MG glioma cell line) was 66 and the “gp100, geometric mean” value (U-87 MG glioma cell line) was 51.
